Results reported in ChEMBL document CHEMBL5252621, “Effective Combination Therapies for the Treatment of HER2 Cancer” (2023).

What was measured:
HCC1954 [1] = experiment: Antitumor activity against human HCC1954 cells xenografted in NCR nude mouse model assessed as tumor growth inhibition at 25 mg/kg via oral gavage administered for 28 days by caliper method; type: functional; details: HCC1954, 672 h, time 28 day, read-out: TGI
HCC1954 [2] = experiment: Antitumor activity against human HCC1954 cells xenografted in NCR nude mouse model assessed as tumor growth inhibition at 25 mg/kg via oral gavage administered for 28 days in presence of trastuzumab/pertuzumab by caliper method; type: functional; details: HCC1954, 672 h, time 28 day, read-out: TGI

**Q.** For `C[C@H](Nc1ccc2c(c1)OCCn1cc(N3C(=O)OC[C@H]3C(F)F)nc1-2)C(N)=O` [INAVOLISIB], which inhibition in vivo at 25 mg/kg (HCC1954 [1]) is on record?
**A.** 122%

**Q.** What about the inhibition in vivo at 25 mg/kg (HCC1954 [2]) of the same compound?
**A.** 148%
